Measurements: PubChem BioAssay AID256 (DTP/NCI, 2004)
Where “and” joins values, the source holds several entries; their conditions need not be identical. Equal values may be shown once. Toxic doses and inconclusive results are not listed.

Test system: CD2F1 mice, L1210 leukemia ip, survival T/C
Assay: NCI In Vivo Anticancer Drug Screen. Data for tumor model L1210 Leukemia (intraperitoneal) in CD2F1 (CDF1) mice
Conditions: higher = longer survival
Summary of the method: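 Vehicle-treated tumor-bearing mice served as controls (C) for compound-treated mice (T). Reported figure is T divided by C.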

[1] = endpoint: mean survival time, dose: 100.0 mg/kg/injection, schedule: Q04DX002 (ip), vehicle: saline with Tween-80
[2] = endpoint: mean survival time, dose: 200.0 mg/kg/injection, schedule: Q04DX002 (ip), vehicle: saline with Tween-80
[3] = endpoint: mean survival time, dose: 400.0 mg/kg/injection, schedule: Q04DX002 (ip), vehicle: saline with Tween-80
[4] = endpoint: mean survival time, dose: 100.0 mg/kg/injection, schedule: Q01DX009 (ip), vehicle: saline
[5] = endpoint: mean survival time, dose: 200.0 mg/kg/injection, schedule: Q01DX009 (ip), vehicle: saline
[6] = endpoint: mean survival time, dose: 100.0 mg/kg/injection, schedule: Q01DX009 (ip), vehicle: saline with Tween-80
[7] = endpoint: mean survival time, dose: 200.0 mg/kg/injection, schedule: Q01DX009 (ip), vehicle: saline with Tween-80
[8] = endpoint: mean survival time, dose: 400.0 mg/kg/injection, schedule: Q01DX009 (ip), vehicle: saline with Tween-80
[9] = endpoint: mean survival time, dose: 100.0 mg/kg/injection, schedule: Q04DX003 (ip), vehicle: saline with Tween-80
[10] = endpoint: mean survival time, dose: 200.0 mg/kg/injection, schedule: Q04DX003 (ip), vehicle: saline with Tween-80
[11] = endpoint: mean survival time, dose: 400.0 mg/kg/injection, schedule: Q04DX003 (ip), vehicle: saline with Tween-80
[12] = endpoint: mean survival time, dose: 25.0 mg/kg/injection, schedule: Q01DX009 (ip), vehicle: saline with Tween-80
[13] = endpoint: mean survival time, dose: 50.0 mg/kg/injection, schedule: Q01DX009 (ip), vehicle: saline with Tween-80
[14] = endpoint: mean survival time, dose: 100.0 mg/kg/injection, schedule: Q01DX001 (ip), vehicle: saline with Tween-80
[15] = endpoint: mean survival time, dose: 200.0 mg/kg/injection, schedule: Q01DX001 (ip), vehicle: saline with Tween-80
[16] = endpoint: mean survival time, dose: 400.0 mg/kg/injection, schedule: Q01DX001 (ip), vehicle: saline with Tween-80
[17] = endpoint: median survival time, dose: 25.0 mg/kg/injection, schedule: Q01DX009 (ip), vehicle: saline with Tween-80
[18] = endpoint: median survival time, dose: 50.0 mg/kg/injection, schedule: Q01DX009 (ip), vehicle: saline with Tween-80
[19] = endpoint: median survival time, dose: 200.0 mg/kg/injection, schedule: Q01DX009 (ip), vehicle: saline with Tween-80
[20] = endpoint: median survival time, dose: 400.0 mg/kg/injection, schedule: Q01DX009 (ip), vehicle: saline with Tween-80
[21] = endpoint: mean survival time, dose: 100.0 mg/kg/injection, schedule: Q01DX001 (ip), vehicle: saline
[22] = endpoint: mean survival time, dose: 200.0 mg/kg/injection, schedule: Q01DX001 (ip), vehicle: saline
[23] = endpoint: mean survival time, dose: 400.0 mg/kg/injection, schedule: Q01DX001 (ip), vehicle: saline

`CCCCCCCCCCCC(=O)OCCN(C=O)C[n+]1ccccc1` was tested, and the T/C (endpoint: mean survival time, dose: 100.0 mg/kg/injection, schedule: Q04DX002 (ip), vehicle: saline) was 101 % of control.

With `O=[N+]([O-])c1cccc2c1ccc1cccnc12` the T/C [1] was 90 % of control, the T/C [2] was 95 % of control and the T/C [3] was 98 % of control.

For `CN(C)c1ccc(/C=C\C(=O)c2ccccc2)cc1`, the T/C (endpoint: mean survival time, dose: 50.0 mg/kg/injection, schedule: Q01DX009 (ip), vehicle: saline) was 109 % of control, the T/C [4] was 97 % of control and the T/C [5] was 106 % of control.

With `NCCCOS(=O)(=O)O` the T/C [6] was 96 % of control, the T/C (endpoint: mean survival time, dose: 100.0 mg/kg/injection, schedule: Q04DX003 (ip), vehicle: saline) was 98 % of control and the T/C [7] was 97 % of control. The T/C (endpoint: mean survival time, dose: 200.0 mg/kg/injection, schedule: Q04DX003 (ip), vehicle: saline) was 101 % of control, the T/C [8] was 100 % of control and the T/C (endpoint: mean survival time, dose: 400.0 mg/kg/injection, schedule: Q04DX003 (ip), vehicle: saline) was 95 % of control.

`CCc1cc(C)cc(OC(=O)Nc2ccc(Cl)cc2)c1` was tested, and the T/C [6] was 93 % of control, the T/C [9] was 107 % of control and the T/C [7] was 100 % of control. For the same compound, the T/C [10] was 93 % of control, the T/C [8] was 96 % of control and the T/C [11] was 91 % of control.

In the case of `COc1ccc2c(O)c(-c3ccc(OC)c(OC)c3)c(=O)oc2c1`, the T/C [12] is reported as 96 % of control, the T/C [13] is reported as 103 % of control and the T/C [6] is reported as 106 % of control.

In the case of `CC/C(=C\c1ccc(Cl)cc1)[N+](=O)[O-]`, the T/C (endpoint: mean survival time, dose: 12.5 mg/kg/injection, schedule: Q04DX003 (ip), vehicle: Klucel (hydroxypropylcellulose) (HPC)) is reported as 102 % of control, the T/C (endpoint: mean survival time, dose: 25.0 mg/kg/injection, schedule: Q04DX003 (ip), vehicle: Klucel (hydroxypropylcellulose) (HPC)) is reported as 97 % of control and the T/C (endpoint: mean survival time, dose: 50.0 mg/kg/injection, schedule: Q04DX003 (ip), vehicle: Klucel (hydroxypropylcellulose) (HPC)) is reported as 97 % of control.

For `CCCCNCCC#N`, the T/C [9] was 102 % of control, the T/C [10] was 95 % of control and the T/C [11] was 98 % of control.

In the case of `Cc1ccc(S(=O)(=O)NC(=O)C2C(=O)CC3(CCCCC3)CC2=O)cc1`, the T/C (endpoint: median survival time, dose: 50.0 mg/kg/injection, schedule: Q01DX009 (ip), vehicle: Klucel (hydroxypropylcellulose) (HPC)) is reported as 100 % of control and the T/C (endpoint: median survival time, dose: 100.0 mg/kg/injection, schedule: Q01DX009 (ip), vehicle: Klucel (hydroxypropylcellulose) (HPC)) is reported as 102 % of control.

In the case of `Nc1nc2c(nnn2C2CC(O)C(CO)C2)c(=O)[nH]1` (stereo unspecified), the T/C [6] is reported as 100 % of control and the T/C [7] is reported as 104 % of control.

With `C/C(=N/Nc1ccccc1)c1cccs1` the T/C [14] was 102 % of control, the T/C [15] was 102 % of control and the T/C [16] was 94 % of control.

`COc1cccc(N=C(N)N=C(N)N)c1` was tested, and the T/C [4] was 95 % of control and the T/C [5] was 90 % of control.

With `CCCCC(O)C(C)C` (stereo unspecified) the T/C [13] was 100 % of control, the T/C [6] was 103 % of control and the T/C [7] was 106 % of control.

`CC(=O)NC(Cc1ccc(N(CCCl)CCCl)cc1)C(=O)O` (stereo unspecified) was tested, and the T/C (endpoint: mean survival time, dose: 3.12 mg/kg/injection, schedule: Q01DX009 (ip), vehicle: saline) was 97 % of control, the T/C (endpoint: mean survival time, dose: 6.25 mg/kg/injection, schedule: Q01DX009 (ip), vehicle: saline) was 105 % of control and the T/C (endpoint: mean survival time, dose: 12.5 mg/kg/injection, schedule: Q01DX009 (ip), vehicle: saline) was 118 % of control.

In the case of `CCC12C(=O)C(CC)(C3=C1c1cccc4cccc3c14)C1C(=O)OC(=O)C12` (stereo unspecified), the T/C [9] is reported as 97 % of control, the T/C [10] is reported as 97 % of control and the T/C [11] is reported as 97 % of control.

In the case of `O=C(Cc1ccccn1)Cc1ccccn1`, the T/C [14] is reported as 106 % of control, the T/C [1] is reported as 100 % of control and the T/C [15] is reported as 96 % of control. The T/C [2] was 100 % of control, the T/C [16] was 106 % of control and the T/C [3] was 104 % of control.

For `O=C(Nc1ccccc1)c1c(O)[nH]c(=O)[nH]c1=O`, the T/C [17] was 112 % of control [middle of 5 runs], the T/C [18] was 124 % of control and 112 % of control and 108 % of control and the T/C [19] was 166 % of control and 179 % of control and 211 % of control. The T/C [20] was 233 % of control.

With `Cc1cc(N(CC(C)Br)CC(C)Br)ccc1N=Nc1ccccc1C(=O)O` (stereo unspecified) the T/C (endpoint: mean survival time, dose: 3.13 mg/kg/injection, schedule: Q01DX009 (ip), vehicle: saline with Tween-80) was 105 % of control and 112 % of control, the T/C (endpoint: mean survival time, dose: 6.25 mg/kg/injection, schedule: Q01DX009 (ip), vehicle: Klucel (hydroxypropylcellulose) (HPC)) was 106 % of control and the T/C (endpoint: mean survival time, dose: 6.25 mg/kg/injection, schedule: Q01DX009 (ip), vehicle: saline with Tween-80) was 114 % of control and 117 % of control and 109 % of control. The T/C (endpoint: mean survival time, dose: 25.0 mg/kg/injection, schedule: Q01DX009 (ip), vehicle: Klucel (hydroxypropylcellulose) (HPC)) was 119 % of control and the T/C [12] was 86 % of control.

`C=CC(=O)NC(C)(C)CC(C)=O` was tested, and the T/C [14] was 98 % of control, the T/C [21] was 103 % of control and the T/C [4] was 100 % of control. For the same compound, the T/C [15] was 102 % of control, the T/C [22] was 97 % of control and the T/C [5] was 100 % of control. The T/C [16] was 102 % of control and the T/C [23] was 102 % of control.

In the case of `COC1CCC(/C=C(\C#N)C2CCC(C)CC2)CC1` (stereo unspecified), the T/C [12] is reported as 93 % of control, the T/C [13] is reported as 91 % of control and the T/C [6] is reported as 90 % of control and 93 % of control. The T/C [8] was 92 % of control.

In the case of `CC(C)(C(=O)c1ccccc1)C(=O)c1ccccc1`, the T/C (endpoint: mean survival time, dose: 50.0 mg/kg/injection, schedule: Q01DX001 (ip), vehicle: saline with Tween-80) is reported as 104 % of control, the T/C [14] is reported as 102 % of control and the T/C [6] is reported as 100 % of control. For the same compound, the T/C [15] was 100 % of control, the T/C [7] was 94 % of control and the T/C [8] was 98 % of control.

With `Cc1nc(N)[nH]c(=O)c1Cc1ccccc1O` the T/C [21] was 100 % of control, the T/C [22] was 97 % of control and the T/C [23] was 97 % of control.

In the case of `CN(C)C1C(=O)C(C(=O)NP(=O)(NCCCO)N(CCCl)CCCl)=C(O)C2(O)C(=O)C3=C(O)c4c(O)cccc4C(C)(O)C3CC12` (stereo unspecified), the T/C (endpoint: mean survival time, dose: 1.56 mg/kg/injection, schedule: Q01DX001 (ip), vehicle: saline with Tween-80) is reported as 102 % of control, the T/C (endpoint: mean survival time, dose: 3.12 mg/kg/injection, schedule: Q01DX001 (ip), vehicle: saline with Tween-80) is reported as 96 % of control and the T/C (endpoint: mean survival time, dose: 15.62 mg/kg/injection, schedule: Q01DX001 (ip), vehicle: saline with Tween-80) is reported as 104 % of control. For the same compound, the T/C (endpoint: mean survival time, dose: 31.25 mg/kg/injection, schedule: Q01DX001 (ip), vehicle: saline with Tween-80) was 100 % of control, the T/C (endpoint: mean survival time, dose: 62.5 mg/kg/injection, schedule: Q01DX001 (ip), vehicle: saline with Tween-80) was 100 % of control and 106 % of control and the T/C (endpoint: mean survival time, dose: 125.0 mg/kg/injection, schedule: Q01DX001 (ip), vehicle: saline with Tween-80) was 124 % of control and 100 % of control. For the same compound, the T/C (endpoint: mean survival time, dose: 250.0 mg/kg/injection, schedule: Q01DX001 (ip), vehicle: saline with Tween-80) was 122 % of control and 110 % of control, the T/C (endpoint: mean survival time, dose: 500.0 mg/kg/injection, schedule: Q01DX001 (ip), vehicle: saline with Tween-80) was 156 % of control and the T/C [17] was 110 % of control. The T/C [18] was 118 % of control, the T/C (endpoint: median survival time, dose: 100.0 mg/kg/injection, schedule: Q01DX009 (ip), vehicle: saline with Tween-80) was 157 % of control and the T/C [19] was 201 % of control and 202 % of control. The T/C [20] was 116 % of control.

In the case of `COc1cccc2c1CCC1C2CC=C2CC3(CCC21C)OCCO3` (stereo unspecified), the T/C (endpoint: mean survival time, dose: 100.0 mg/kg/injection, schedule: Q04DX003 (sc), vehicle: steriod suspending solution) is reported as 97 % of control, the T/C (endpoint: mean survival time, dose: 200.0 mg/kg/injection, schedule: Q04DX003 (sc), vehicle: steriod suspending solution) is reported as 92 % of control and the T/C (endpoint: mean survival time, dose: 400.0 mg/kg/injection, schedule: Q04DX003 (sc), vehicle: steriod suspending solution) is reported as 94 % of control.

In the case of `Nc1nnn(CCO)n1`, the T/C [6] is reported as 100 % of control, the T/C [7] is reported as 97 % of control and the T/C [8] is reported as 96 % of control.
